How the values were obtained:
[1] = system: HSC-2; experiment: Cytotoxicity against human HSC2 cells by MTT assay; type: functional, cell-based
[2] = system: HL-60; experiment: Cytotoxicity against human HL60 cells by MTT assay; type: functional, cell-based

Question: With C[C@H]1CO[C@@]2(O[C@H]3C[C@@]4(O)[C@@H]5CC=C6C[C@@H](O[C@@H]7O[C@H](CO)[C@@H](O)[C@H](O)[C@H]7O[C@@H]7O[C@@H](C)[C@H](O)[C@@H](O)[C@H]7O)CC[C@]6(C)[C@H]5CC[C@]4(C)[C@@]3(O)[C@@H]2C)[C@@H](O)C1 as the molecule, how does the IC50 [1] read?
Answer: Its IC50 is over 200 µM.

Question: What about the IC50 [2] of the same molecule?
Answer: The IC50 was over 200 µM.

Question: Which IC50 [1] does the source give for C[C@H]1CO[C@@]2(O[C@H]3C[C@H]4[C@@H]5CC=C6C[C@@H](O[C@@H]7O[C@H](CO)[C@@H](O)[C@H](O)[C@H]7O[C@@H]7O[C@@H](C)[C@H](O)[C@@H](O)[C@H]7O)CC[C@]6(C)[C@H]5C[C@H](O)[C@]4(C)[C@@]3(O)[C@@H]2C)[C@@H](O)C1 here?
Answer: Its IC50 is over 200 µM.

Question: What about the IC50 [2] of the same molecule?
Answer: The IC50 was over 200 µM.

Question: What does the source list for C[C@H]1CO[C@@]2(O[C@H]3C[C@@]4(O)[C@@H]5CC=C6C[C@@H](O)CC[C@]6(C)[C@H]5CC[C@]4(C)[C@@]3(O)[C@@H]2C)[C@@H](O)C1?
Answer: IC50 [1]: > 200 µM; IC50 [2]: > 200 µM

Question: Which IC50 [1] does the source give for C[C@H]1CO[C@@]2(O[C@H]3C[C@H]4[C@@H]5CC=C6C[C@@H](O)CC[C@]6(C)[C@H]5C[C@H](O)[C@]4(C)[C@@]3(O)[C@@H]2C)[C@@H](O)C1 here?
Answer: The IC50 was over 200 µM.

Question: What about the IC50 [2] of the same molecule?
Answer: Its IC50 is over 200 µM.

Question: With C[C@@H]1O[C@@H](O[C@H]2[C@H](O[C@H]3CC[C@@]4(C)C(=CC[C@H]5[C@@H]6C[C@@H]7O[C@@]8(OC[C@H](C)[C@@H](O)[C@@H]8O)[C@@H](C)[C@@H]7[C@@]6(C)CC[C@@H]54)C3)O[C@H](CO)[C@@H](O)[C@@H]2O)[C@H](O)[C@H](O)[C@H]1O as the molecule, how does the IC50 [1] read?
Answer: The IC50 was over 200 µM.

Question: What about the IC50 [2] of the same molecule?
Answer: Its IC50 is over 200 µM.
